Like-named read-outs stand apart in the source and are kept apart here.
Tests used:
Format in all cases: in vivo, human
[1] = tested on: subjects suffering from the Insomnia Disorder adult insomnia
Method: Following the evening-time dosing with study drug, subjects underwent eight hours of continuous PSG recording. Next-day residual effects were assessed by the DSST and the KSS evaluation, collected in that order, starting at approximately 30 minutes after “lights-on.” All tests were administered in the clinical unit, beginning 30 minutes after lights-on and periodically thereafter for approximately 16 hours post-lights-off, following completion of PSG recording. Each subject also completed a post-sleep questionnaire once after lights-on so that subjective impressions could be assessed about the “quality” and “quantity” of their sleep. Before the second night dosing in each dosing period, subjects were evaluated for any residual sleepiness. […] Subjects remained in the clinic until residual symptoms were minimized.
The well-known KSS measures, subjectively, the level of a subject's sleepiness at a specific time of the day and was therefore useful as another indication of next day residual effects, if any. The KSS comprised a 9-step scale (ranging from, e.g., “extremely alert” (assigned 1 point) to alert (assigned 3 points) to “neither sleepy nor alert” (assigned 5 points) to “sleepy” (assigned 7 points) to “extremely sleepy” (assigned 9 points)) that characterized sleepiness at a particular time during the day (within 5 minutes of the assessment).
In a paper-and-pencil evaluation, each subject checked a box corresponding to the point of the scale that best characterized their state of drowsiness experienced during the preceding 5 minutes. The KSS evaluation followed the DSST after each night of the baseline visit (Visit 2) and after each night of Dosing Periods 1-5 according to the schedule set out in the previous example.
The KSS evaluation results shown, other than for the baseline, are the mean results obtained from the KSS evaluation scores following all nights of Dosing Periods 1-5 for the indicated dose. The KSS evaluation results for the baseline are the mean results obtained following the first and second nights of the baseline visit. Note that for clarity of display purposes, in FIG. 7 many of the test results at each time period, e.g., at approximately ½ hour after lights-on/9 hours post-dosing, were staggered arbitrarily away from the actual time when the test was conducted.

clinical [2] = settings: for Fe, Mean (CV %): unchanged in urine; for CLr, Mean / Tmax / half-life / AUC / CL renal / Cmax: human, in vivo; for half-life: read-out: T1/2, Mean (CV %) (converted); for AUC / Cmax: Mean (CV %); for CL renal: CLr, Mean
Source text: This study was designed to evaluate the safety and pharmacokinetic (“PK”) interactions between Compound (1C) and alcohol in healthy subjects. […] The study was designed as a single-site, randomized, single-dose, double-blinded, placebo-controlled crossover study, and 46 subjects completed treatment as part of the study.
The dose of alcohol at 0.7 g/kg was consistent with the NIAAA definition of binge drinking, which can lead to blood alcohol concentration of approximately 0.08 g/dL. In the United States this is generally considered the level at which a person is legally impaired. In addition, such dose level has been studied in previously completed relevant alcohol interaction study in which the safety and tolerability were established in a similar population (Hong Sun et al. “Psychomotor effects, pharmacokinetics and safety of the orexin receptor antagonist suvorexant administered in combination with alcohol in healthy subjects.” Journal of Psychopharmacology 2015, Vol. 29(11) 1159-1169).
Briefly, blinded alcoholic beverage or placebo beverage was consumed over a 20- to 30-minute period. The beverage was divided into 3 parts, with approximately ⅓ administered (consumed to completion by subject at their own pace) every 10 minutes, […], in order to control for drinking rate.
Subjects swallowed Compound (1C) with the alcoholic beverage, with small sips of water as needed if the subject could not drink the alcohol quickly enough to consume the alcohol. […] A mouthwash with water was provided before and at the end of dosing. A mouth check was performed to verify that the Compound (1C) doses administered are swallowed. Vital signs and oxygen saturation, SpO2, (FIG. 26) were collected for evaluation by the investigator.
AUCt Area under the plasma concentration-time curve from hour 0 to the last measurable plasma concentration, calculated by the linear trapezoidal method.
AUCinf Area under the plasma concentration-time curve extrapolated to infinity:
Where Ct is the last measurable plasma concentration and […] is the apparent terminal phase rate constant;
Cmax Maximum observed plasma concentration
Tmax Time to maximum plasma concentration
T1/2 Apparent terminal phase half-life: T1/2=(ln2)/λz

clinical [3] = settings: for mean fraction of dose excreted unchanged in urine over 48 hours (Fe48): day 1; for mean fraction of dose excreted unchanged in urine over 24 hours (Fe24): day 16

O=C(O)c1nc2ccccc2n([C@H]2C[C@H]3CCC[C@@H](C2)N3C2CC3CCCC(C3)C2)c1=O (stereo partly drawn) [Compound (1C)]
next day residual effects by mean KSS evaluation results vs placebo ([1]; 0.5 mg, about 9 to about 16 hours post-dosing): no next day residual effects | next day residual effects by mean KSS evaluation results vs placebo ([1]; 1.0 mg, about 9 to about 16 hours post-dosing): no next day residual effects | next day residual effects by mean KSS evaluation results vs placebo ([1]; 3.0 mg, each of the testing times): some next day residual effects | next day residual effects by mean KSS evaluation results vs placebo ([1]; 6.0 mg, each of the testing times): some next day residual effects | Fe, Mean (CV %) (clinical [2]; 2 mg + EtOH (0.7 g/kg)): 84 (33) % | Urine Fe, Mean (clinical [2]; 2 mg Alone (N = 48)): 80.7% | Fe, Mean (CV %) (clinical [2]; 2 mg alone): 81 (12) % | PK profile of ethanol on co-administration of Compound (1C) (clinical [2]; 2 mg or 6 mg with ethanol vs ethanol with placebo, FIG. 24): not affected | Urine Fe, Mean (clinical [2]; 2 mg with Alcohol (N = 46)): 83.6% | Fe, Mean (CV %) (clinical [2]; 6 mg + EtOH (0.7 g/kg)): 80 (20) % | Urine Fe, Mean (clinical [2]; 6 mg Alone (N = 47)): 80.8% | Fe, Mean (CV %) (clinical [2]; 6 mg alone): 81 (10) % | Urine Fe, Mean (clinical [2]; 6 mg with Alcohol (N = 48)): 79.6% | effect of alcohol on the PK profile of Compound (1C) (clinical [2]; 2 and 6 mg with 0.7 g/kg ethanol): does not alter the PK profile | CLr, Mean (clinical [2]; 2 mg): 12.7 L/h | Tmax (clinical [2]; 2 mg): 1.7 h | half-life (clinical [2]; 2 mg + EtOH (0.7 g/kg)): 3.9 h | half-life (clinical [2]; 2 mg, 2 mg alone): 4 h | AUC (clinical [2]; 2 mg): 130 ng·h/mL | CL renal (clinical [2]; 2 mg): 210 mL/min | Cmax (clinical [2]; 2 mg): 28.2 ng/mL | CLr, Mean (clinical [2]; 6 mg): 12.3 L/h | Tmax (clinical [2]; 6 mg): 1.9 h | half-life (clinical [2]; 6 mg + EtOH (0.7 g/kg)): 4.5 h | half-life (clinical [2]; 6 mg, 6 mg alone): 4.5 h | AUC (clinical [2]; 6 mg): 402 ng·h/mL | CL renal (clinical [2]; 6 mg): 198 mL/min | Cmax (clinical [2]; 6 mg): 78.3 ng/mL | mean fraction of dose excreted unchanged in urine over 48 hours (Fe48) (clinical [3]; 0.6 mg): 96% | mean fraction of dose excreted unchanged in urine over 24 hours (Fe24) (clinical [3]; 0.6 mg): 90% | mean fraction of dose excreted unchanged in urine over 48 hours (Fe48) (clinical [3]; 2 mg): 100% | mean fraction of dose excreted unchanged in urine over 24 hours (Fe24) (clinical [3]; 2 mg): 102% | mean fraction of dose excreted unchanged in urine over 48 hours (Fe48) (clinical [3]; 10 mg): 84% | mean fraction of dose excreted unchanged in urine over 24 hours (Fe24) (clinical [3]; 10 mg): 81% | time of urinary excretion of most of the unchanged compound (clinical [3]; across the dose range, days 1 and 16): during the first 8 hours | CL renal (clinical [3]; human, in vivo, all dose levels, days 1 and 16, read-out: mean CLr): 274 to 354 mL/min
